Measurements published in PMC11329750 (Clinical and Translational Science, 2024).

Columns and labels:
[1] = cited from earlier work
[2] = 900 mg SJW of another brand; absence of autoinduction; cited from earlier work
[3] = tested on: CYP3A; assay: Limited-sampling strategy; settings: human, in vivo, po, 30 ug
[4] = tested on: CYP3A; assay: Intravenous midazolam microdose; assay type: in vivo, human
[5] = tested on: CYP3A; settings: 900 mg SJW daily, same brand; cited from earlier work
[6] = tested on: CYP3A; assay: Oral midazolam microdose; assay type: in vivo, human; settings: for F GMR: GMR (90% CI); for bioavailability: F (absolute bioavailability)
[7] = SJW 1800 + rifampin 600 for 7 days vs SJW 1800

**Q.** For `CO[C@H]1/C=C/O[C@@]2(C)Oc3c(C)c(O)c4c(O)c(c(/C=N/N5CCN(C)CC5)c(O)c4c3C2=O)NC(=O)/C(C)=C\C=C\[C@H](C)[C@H](O)[C@@H](C)[C@@H](O)[C@@H](C)[C@H](OC(C)=O)[C@@H]1C` [rifampin], which “daily doses at which maximum induction is already reached” value [1] is on record?
**A.** 300 to 600 mg

**Q.** Which “reduction of exposure to single carbamazepine doses” value [2] does the source give for `NC(=O)N1c2ccccc2C=Cc2ccccc21` [carbamazepine] here?
**A.** 21%

**Q.** For `Cc1ncc2n1-c1ccc(Cl)cc1C(c1ccccc1F)=NC2` [midazolam], which AUC [3] is on record?
**A.** 0.0657 ng·h/mL

**Q.** What about the “further increase of midazolam CL i.v.” value [4, 7] of the same compound?
**A.** 1.43 fold

**Q.** And the AUC(0-inf) ([4]; human, plasma, intravenous, 10 ug)?
**A.** 0.287 ng·h/mL

**Q.** What about the AUC(0-inf) ([4]; human, plasma, iv, 10 ug) of the same compound?
**A.** 0.334 ng·h/mL

**Q.** And the Vd ([4]; human, plasma, iv, 10 ug)?
**A.** 148 L

**Q.** And the half-life ([4]; human, plasma, iv, 10 ug)?
**A.** 2.97 h

**Q.** And the “fold increase of midazolam clearance with a regular midazolam dose” value [5]?
**A.** 4.22

**Q.** What about the “F GMR” value ([6]; 30 μg midazolam orally, SJW 1800 + rifampin 600 vs baseline) of the same compound?
**A.** 0.2070 (0.1704–0.2516)

**Q.** What about the “F GMR” value ([6]; 30 μg midazolam orally, SJW 1800 vs baseline) of the same compound?
**A.** 0.4437 (0.3735–0.5271)

**Q.** And the CL/F ([6]; 30 μg midazolam orally, baseline, GM (95% CI))?
**A.** 1649 (1290–2109) mL min^−1

**Q.** What about the “further increase of midazolam CL orally” value [6, 7] of the same compound?
**A.** 3.06 fold

**Q.** And the AUC(0-inf) ([6]; human, plasma, po, 30 ug)?
**A.** 0.303 ng·h/mL

**Q.** What about the AUC(0-t) ([6]; human, plasma, po, 30 ug) of the same compound?
**A.** 0.258 ng·h/mL

**Q.** And the Cmax ([6]; human, plasma, po, 30 ug)?
**A.** 0.139 ng/mL

**Q.** What about the Vd/F ([6]; human, plasma, po, 30 ug) of the same compound?
**A.** 422 L

**Q.** And the bioavailability ([6]; human, plasma, po, 30 ug, 30 μg midazolam orally, SJW 1800 mg/day for 14 days, GM (95% CI))?
**A.** 15.6%

**Q.** What about the bioavailability ([6]; human, plasma, po, 30 ug, 30 μg midazolam orally, baseline, GM (95% CI)) of the same compound?
**A.** 35.1%
